This note sets out measurements from patent publication US9290478B2, “Substituted quinoxalines as FGFR kinase inhibitors” (ASTEX THERAPEUTICS LTD, priority 2010, dated 2016).

One test addresses FGFR4 (h) (Homo sapiens, UniProt P22455). Description: FGFR4 (enzymatic assay), TR-FRET. Format: biochemical. The settings on record: 5 μM ATP; for IC50: read-out: FGFR4 pIC50 (converted). On the procedure:
(§1) In a final reaction volume of 30 μL, FGFR4 (h) (60 ng/ml) was incubated with 50 mM HEPES pH 7.5, 6 mM MnCl2, 1 mM DTT, 0.1 mM Na3VO4, 0.01% Triton-X-100, 500 nM Btn-Flt3 and 5 μM ATP in the presence of compound (1% DMSO final). After incubation for 60 minutes at room temperature the reaction was stopped with 2.27 nM EU-anti P-Tyr, 7 mM EDTA, 31.25 nM SA-XL-665 and 0.02% BSA which was present for 60 minutes at room temperature. Time-Resolved Fluorescence Resonance Energy Transfer (TR-FRET) signal (ex340 nm. Em 620 nm, em 655 nm) was measured afterwards and results are expressed in RFU (Relative Fluorescence Units). In this assay, the inhibitory effect of different compound concentrations (range 10 μM to 0.1 nM) was determined and used to calculate an IC50 (M) and pIC50 (−log IC50) value.

Test [1] deals with T1, Ba/F3-KDR-transfected cells (Homo sapiens, UniProt P35968).
T1 construct: BAF3-KDR (MIN IL3) pIC50; other: minus IL3
T1 sequence (P35968 whole entry, change not shown): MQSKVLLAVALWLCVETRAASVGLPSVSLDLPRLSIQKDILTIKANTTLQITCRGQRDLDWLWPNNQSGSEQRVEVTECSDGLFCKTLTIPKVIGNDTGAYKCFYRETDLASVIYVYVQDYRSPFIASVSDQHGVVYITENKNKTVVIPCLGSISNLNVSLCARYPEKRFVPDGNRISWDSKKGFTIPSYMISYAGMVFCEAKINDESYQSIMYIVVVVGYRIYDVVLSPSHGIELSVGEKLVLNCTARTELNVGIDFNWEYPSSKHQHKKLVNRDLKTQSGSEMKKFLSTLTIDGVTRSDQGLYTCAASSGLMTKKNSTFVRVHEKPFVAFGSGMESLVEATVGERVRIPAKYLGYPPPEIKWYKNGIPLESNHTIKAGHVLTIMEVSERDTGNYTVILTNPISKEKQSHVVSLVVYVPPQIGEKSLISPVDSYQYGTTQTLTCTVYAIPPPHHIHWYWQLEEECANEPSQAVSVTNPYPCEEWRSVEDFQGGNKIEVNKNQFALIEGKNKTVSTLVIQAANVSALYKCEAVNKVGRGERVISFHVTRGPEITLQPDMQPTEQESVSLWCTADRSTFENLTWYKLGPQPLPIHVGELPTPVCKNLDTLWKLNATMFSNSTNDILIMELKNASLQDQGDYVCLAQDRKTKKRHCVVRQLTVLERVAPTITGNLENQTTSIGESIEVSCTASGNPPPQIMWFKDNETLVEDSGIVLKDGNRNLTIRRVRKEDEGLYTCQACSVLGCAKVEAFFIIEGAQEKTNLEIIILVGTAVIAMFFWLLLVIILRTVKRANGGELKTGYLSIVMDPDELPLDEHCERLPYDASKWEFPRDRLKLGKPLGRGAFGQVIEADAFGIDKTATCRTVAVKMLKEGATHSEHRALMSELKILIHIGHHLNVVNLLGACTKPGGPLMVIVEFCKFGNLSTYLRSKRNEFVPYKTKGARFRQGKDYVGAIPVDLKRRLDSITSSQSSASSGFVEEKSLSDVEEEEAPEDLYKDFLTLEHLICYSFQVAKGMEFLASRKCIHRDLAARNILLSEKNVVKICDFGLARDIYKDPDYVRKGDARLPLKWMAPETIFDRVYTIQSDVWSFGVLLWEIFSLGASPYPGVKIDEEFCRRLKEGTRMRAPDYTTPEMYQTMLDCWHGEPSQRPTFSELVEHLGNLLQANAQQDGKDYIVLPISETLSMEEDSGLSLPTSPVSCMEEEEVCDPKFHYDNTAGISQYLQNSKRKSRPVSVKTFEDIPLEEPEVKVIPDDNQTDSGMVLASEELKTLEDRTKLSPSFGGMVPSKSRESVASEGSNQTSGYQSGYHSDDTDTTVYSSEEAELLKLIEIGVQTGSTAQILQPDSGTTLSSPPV
Description: Ba/F3-KDR (minus IL3 or plus IL3) cellular proliferation assay. It counts as cell-based. The settings on record: minus IL3. On the procedure: (§2) Ba/F3-KDR (Minus IL3 or Plus IL3) (Cellular Proliferation Assay)
(§3) In a 384 well plate, 100 nI of compound dilution in DMSO was sprayed before adding 50 μl cell culture medium (phenol red free RPMI-1640, 10% FBS, 2 mM L-Glutamine and 50 μg/ml Gentamycin) containing 20000 cells per well of Ba/F3-KDR-transfected cells. Cells were put in an incubator at 37° C. and 5% CO2. After 24 hours, 10 μl of Alamar Blue solution (0.5 mM K3Fe(CN)6, 0.5 mM K4Fe(CN)6, 0.15 mM Resazurin and 100 mM Phosphate Buffer) was added to the wells, incubated for 4 hours at 37° C. and 5% CO2 before RFU's (Relative Fluorescence Units) (ex. 540 nm., em. 590 nm.) were measured in a fluororescence plate reader.
(§4) In this assay, the inhibitory effect of different compound concentrations (range 10 μM to 0.1 nM) was determined and used to calculate an IC50 (M) and pIC50 (−log IC50) value. As a counterscreen the same experiment was performed in the presence of 10 ng/ml murine IL3.

Test [2] concerns Ba/F3-KDR-transfected cells. Described as above. Format: cell-based. Conditions: plus 10 ng/ml murine IL3 (counterscreen); for IC50: 24 h, read-out: BAF3-KDR (PLUS IL3) pIC50 (converted). On the procedure:
as §2, §3, §4

Test [3] concerns Ba/F3-FGFR1-transfected cells. Description: Ba/F3-FGFR1 (minus IL3 or plus IL3) cellular proliferation assay. Conditions: plus 10 ng/ml murine IL3 (counterscreen); for IC50: 24 h, read-out: BAF3-FGFR1 (PLUS IL3) pIC50 (converted). Format: cell-based. On the procedure: (§5) Ba/F3-FGFR1 (Minus IL3 or Plus IL3) (Cellular Proliferation Assay)
as §3, with “nl” for “nI”, “Ba/F3-FGFR1-transfected” for “Ba/F3-KDR-transfected”
(§6) In this assay, the inhibitory effect of different compound concentrations (range 10 μM to 0.1 nM) was determined and used to calculate an IC50 (M) and pIC50 (−log IC50) value.
(§7) As a counterscreen the same experiment was performed in the presence of 10 ng/ml murine IL3.
(The purpose of a counterscreen is to sort out artefacts and off-target activity.)

The target of test [4] is T2, Ba/F3-FGFR1-transfected cells (Homo sapiens, UniProt P11362).
T2 construct: BAF3-FGFR1 (MIN IL3) pIC50; other: minus IL3
T2 sequence (P11362 whole entry, change not shown): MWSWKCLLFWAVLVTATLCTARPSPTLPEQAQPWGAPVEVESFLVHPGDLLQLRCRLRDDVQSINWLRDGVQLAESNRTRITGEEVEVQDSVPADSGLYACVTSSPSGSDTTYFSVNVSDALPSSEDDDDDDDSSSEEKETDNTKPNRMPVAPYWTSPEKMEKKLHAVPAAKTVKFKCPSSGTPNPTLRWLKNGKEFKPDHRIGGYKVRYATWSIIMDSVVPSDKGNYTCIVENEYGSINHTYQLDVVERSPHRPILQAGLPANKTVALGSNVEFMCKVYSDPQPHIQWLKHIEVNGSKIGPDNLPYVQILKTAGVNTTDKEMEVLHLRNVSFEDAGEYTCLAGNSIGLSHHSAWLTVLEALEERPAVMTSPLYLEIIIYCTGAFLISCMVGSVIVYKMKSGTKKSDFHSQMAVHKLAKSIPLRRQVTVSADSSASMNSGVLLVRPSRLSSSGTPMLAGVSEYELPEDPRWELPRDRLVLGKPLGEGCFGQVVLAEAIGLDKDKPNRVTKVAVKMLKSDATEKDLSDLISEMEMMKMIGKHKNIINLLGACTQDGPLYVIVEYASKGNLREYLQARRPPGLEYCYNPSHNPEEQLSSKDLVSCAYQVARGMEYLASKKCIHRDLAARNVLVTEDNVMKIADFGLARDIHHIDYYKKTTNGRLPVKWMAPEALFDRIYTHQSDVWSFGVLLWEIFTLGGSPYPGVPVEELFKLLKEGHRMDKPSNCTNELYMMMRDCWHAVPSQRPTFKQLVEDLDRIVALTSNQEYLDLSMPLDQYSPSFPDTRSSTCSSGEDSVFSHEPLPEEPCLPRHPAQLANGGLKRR
Described as above. Format: cell-based. Conditions: minus IL3. On the procedure:
as §5
as §3, with “nl” for “nI”, “Ba/F3-FGFR1-transfected” for “Ba/F3-KDR-transfected”
as §6, §7

Test [5] relates to Ba/F3-FGFR3-transfected cells. Nature of the test: Ba/F3-FGFR3 (minus IL3 or plus IL3) cellular proliferation assay. Format: cell-based. The settings on record: plus 10 ng/ml murine IL3 (counterscreen); for IC50: 24 h, read-out: BAF3-FGFR3 (PLUS IL3) pIC50 (converted). On the procedure: (§8) Ba/F3-FGFR3 (Minus IL3 or Plus IL3) (Cellular Proliferation Assay)
as §3, with “Ba/F3-FGFR3-transfected” for “Ba/F3-KDR-transfected”
as §4

In test [6] the target is T3, Ba/F3-FGFR3-transfected cells (Homo sapiens, UniProt P22607).
T3 construct: BAF3-FGFR3 (MIN IL3) pIC50; other: minus IL3
T3 sequence (P22607 whole entry, change not shown): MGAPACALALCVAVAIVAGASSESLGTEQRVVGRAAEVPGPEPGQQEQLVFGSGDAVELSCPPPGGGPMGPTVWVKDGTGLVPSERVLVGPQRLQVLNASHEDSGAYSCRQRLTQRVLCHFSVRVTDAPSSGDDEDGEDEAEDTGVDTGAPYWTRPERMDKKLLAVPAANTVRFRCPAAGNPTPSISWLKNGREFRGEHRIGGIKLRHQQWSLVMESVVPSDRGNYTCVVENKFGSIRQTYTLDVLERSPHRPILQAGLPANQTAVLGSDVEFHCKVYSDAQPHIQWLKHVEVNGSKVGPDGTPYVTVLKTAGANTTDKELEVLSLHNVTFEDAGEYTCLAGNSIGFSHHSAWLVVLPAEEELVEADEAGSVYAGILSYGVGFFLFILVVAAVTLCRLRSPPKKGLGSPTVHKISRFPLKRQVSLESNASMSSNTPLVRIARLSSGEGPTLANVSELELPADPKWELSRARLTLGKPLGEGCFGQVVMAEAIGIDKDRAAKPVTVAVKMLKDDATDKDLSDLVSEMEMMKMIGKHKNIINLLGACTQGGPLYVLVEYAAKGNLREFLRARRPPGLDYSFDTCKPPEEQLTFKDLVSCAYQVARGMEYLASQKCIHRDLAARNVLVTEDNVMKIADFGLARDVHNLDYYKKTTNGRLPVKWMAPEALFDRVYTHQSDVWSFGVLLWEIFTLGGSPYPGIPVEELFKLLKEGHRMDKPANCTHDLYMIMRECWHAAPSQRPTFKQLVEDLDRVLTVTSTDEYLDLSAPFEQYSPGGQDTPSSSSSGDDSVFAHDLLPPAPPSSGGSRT
The test is described as above. Conditions: minus IL3. It counts as cell-based. On the procedure: as §8
as §3, with “Ba/F3-FGFR3-transfected” for “Ba/F3-KDR-transfected”
as §4

The next test addresses FGFR2 (h) (Homo sapiens, UniProt P21802). Description: FGFR2 (enzymatic assay), TR-FRET. It counts as biochemical. The settings on record: 0.4 μM ATP; read-out: FGFR2 pIC50 (converted). On the procedure: as §1, with “μL, FGFR2” for “μL, FGFR4”, “(h) (150” for “(h) (60”, “and 0.4” for “and 5”, “in” for “in RFU”
A general note: TR-FRET usually uses a lanthanide donor and a delayed reading to cut background.

FGFR2 (h), sequence (P21802 22-821): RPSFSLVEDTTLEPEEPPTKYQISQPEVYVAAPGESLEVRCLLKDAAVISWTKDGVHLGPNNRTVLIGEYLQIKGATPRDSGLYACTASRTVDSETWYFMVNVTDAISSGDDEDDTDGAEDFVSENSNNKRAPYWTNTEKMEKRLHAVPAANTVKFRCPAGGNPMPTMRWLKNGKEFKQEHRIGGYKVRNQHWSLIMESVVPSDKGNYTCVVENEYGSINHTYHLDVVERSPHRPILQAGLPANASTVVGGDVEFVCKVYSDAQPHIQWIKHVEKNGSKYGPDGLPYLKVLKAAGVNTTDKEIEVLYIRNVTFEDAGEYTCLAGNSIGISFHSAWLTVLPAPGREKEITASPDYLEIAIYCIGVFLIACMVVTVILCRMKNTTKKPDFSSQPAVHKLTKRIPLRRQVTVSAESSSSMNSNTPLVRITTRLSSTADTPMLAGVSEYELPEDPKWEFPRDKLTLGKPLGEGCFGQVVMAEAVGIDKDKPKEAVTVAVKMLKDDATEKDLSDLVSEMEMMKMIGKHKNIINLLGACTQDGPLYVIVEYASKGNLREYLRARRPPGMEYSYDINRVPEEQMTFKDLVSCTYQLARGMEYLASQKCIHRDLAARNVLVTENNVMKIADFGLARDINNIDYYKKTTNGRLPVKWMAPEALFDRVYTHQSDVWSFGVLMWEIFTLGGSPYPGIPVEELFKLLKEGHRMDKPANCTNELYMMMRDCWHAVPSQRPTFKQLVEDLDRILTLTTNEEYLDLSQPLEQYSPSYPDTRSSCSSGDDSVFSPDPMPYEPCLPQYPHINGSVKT
FGFR4 (h), sequence (P22455 22-802): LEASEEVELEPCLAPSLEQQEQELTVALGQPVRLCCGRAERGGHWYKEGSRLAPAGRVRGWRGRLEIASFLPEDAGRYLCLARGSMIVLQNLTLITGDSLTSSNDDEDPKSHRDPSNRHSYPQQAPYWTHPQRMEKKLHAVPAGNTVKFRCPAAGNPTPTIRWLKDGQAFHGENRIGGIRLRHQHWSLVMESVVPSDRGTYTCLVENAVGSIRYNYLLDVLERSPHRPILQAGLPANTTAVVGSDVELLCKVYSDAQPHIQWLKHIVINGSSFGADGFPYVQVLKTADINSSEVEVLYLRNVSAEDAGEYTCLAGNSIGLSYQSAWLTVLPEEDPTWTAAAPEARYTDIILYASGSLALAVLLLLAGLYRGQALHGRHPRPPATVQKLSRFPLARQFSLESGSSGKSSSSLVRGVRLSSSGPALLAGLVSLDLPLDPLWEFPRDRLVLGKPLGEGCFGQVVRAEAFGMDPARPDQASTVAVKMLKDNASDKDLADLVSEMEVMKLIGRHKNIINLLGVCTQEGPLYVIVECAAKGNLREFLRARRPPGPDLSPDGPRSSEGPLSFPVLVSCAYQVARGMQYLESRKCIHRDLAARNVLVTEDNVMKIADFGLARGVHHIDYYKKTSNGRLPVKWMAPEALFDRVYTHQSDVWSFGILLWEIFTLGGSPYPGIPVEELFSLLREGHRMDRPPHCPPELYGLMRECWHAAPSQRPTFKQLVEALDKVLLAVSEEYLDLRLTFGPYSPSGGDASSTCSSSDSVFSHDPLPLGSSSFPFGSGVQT

On to `CNCC(O)(c1cc(OC)cc(OC)c1)c1ccc2ncc(-c3cnn(C)c3)nc2c1.Cl` (single isomer, unassigned) [Compound 38], for which the “FGFR4 pIC50” value on FGFR4 (h) is under 6. The “BAF3-KDR (MIN IL3) pIC50” value in test [1] is under 5. Also, the “BAF3-KDR (PLUS IL3) pIC50” value in test [2] is under 5. The “BAF3-FGFR1 (PLUS IL3) pIC50” value in test [3] is under 5. Further, the “BAF3-FGFR1 (MIN IL3) pIC50” value in test [4] is on record as under 5. Further, the “BAF3-FGFR3 (PLUS IL3) pIC50” value in test [5] was under 5. Also, the “BAF3-FGFR3 (MIN IL3) pIC50” value in test [6] is listed as under 5. Moreover, the IC50 on FGFR2 (h) is over 1000 nM.

For the compound `COc1cc(OC)cc(C2(c3ccc4ncc(-c5cnn(C)c5)nc4c3)CC2)c1` [Compound 30], the IC50 was 479 nM on FGFR4 (h); over 10 µM in test [2]; over 10 µM in test [3]; over 10 µM in test [5]; 50.1 nM on FGFR2 (h). For the same compound, the “BAF3-KDR (MIN IL3) pIC50” value in test [1] is under 5. The “BAF3-FGFR1 (MIN IL3) pIC50” value in test [4] is reported as 5.23. Also, the “BAF3-FGFR3 (MIN IL3) pIC50” value in test [6] amounted to 5.63.

Regarding `COc1cc(OC)cc(C(CC(=O)NC(C)C)c2ccc3ncc(-c4cnn(C)c4)nc3c2)c1` (centres unmarked) [Compound 23], the IC50 on FGFR4 (h) was over 1000 nM; in test [2], over 10 µM; in test [3], over 10 µM; in test [5] it was over 10 µM; on FGFR2 (h) it was over 1000 nM. Further, the “BAF3-KDR (MIN IL3) pIC50” value in test [1] is listed as under 5. For the same compound, the “BAF3-FGFR1 (MIN IL3) pIC50” value in test [4] was under 5. Besides, the “BAF3-FGFR3 (MIN IL3) pIC50” value in test [6] is listed as under 5.

`COc1cc(OC)cc(C(CCO)c2ccc3ncc(-c4cnn(C)c4)nc3c2)c1` (centres unmarked) [Compound 22]: the IC50 at FGFR4 (h) is 513 nM; in test [2], over 10 µM; in test [3], over 10 µM; in test [5] it was over 10 µM; on FGFR2 (h), 126 nM. Besides, the “BAF3-KDR (MIN IL3) pIC50” value in test [1] is reported as under 5. For the same compound, in test [4], the “BAF3-FGFR1 (MIN IL3) pIC50” value is on record as 5.66. For the same compound, in test [6], the “BAF3-FGFR3 (MIN IL3) pIC50” value was determined as 5.65.

On to `CNCC(O)(c1cc(OC)cc(OC)c1)c1ccc2ncc(-c3cnn(C)c3)nc2c1.Cl` (single isomer, unassigned) [Compound 37], for which the IC50 on FGFR4 (h) is over 1000 nM; in test [2] it was over 10 µM; in test [3] it was over 10 µM; in test [5], over 10 µM; at FGFR2 (h), 589 nM. Moreover, the “BAF3-KDR (MIN IL3) pIC50” value in test [1] is reported as under 5. Besides, the “BAF3-FGFR1 (MIN IL3) pIC50” value in test [4] is on record as under 5. Also, the “BAF3-FGFR3 (MIN IL3) pIC50” value in test [6] is on record as under 5.

`COc1cc(OC)cc(/C(=C/CNC(C)C)c2ccc3ncc(-c4cnn(C)c4)nc3c2)c1` [Compound 9]: the IC50 at FGFR4 (h) was 1480 nM; in test [2], over 10 µM; in test [3], over 10 µM; in test [5], over 10 µM; on FGFR2 (h), 87.1 nM. In addition, the “BAF3-KDR (MIN IL3) pIC50” value in test [1] was under 5. Further, the “BAF3-FGFR1 (MIN IL3) pIC50” value in test [4] came to 6.51. The “BAF3-FGFR3 (MIN IL3) pIC50” value in test [6] amounted to 6.82.

As for `CN(C)CCC(c1ccccc1)c1ccc2ncc(-c3cnn(C)c3)nc2c1` (centres unmarked) [Compound 35], the IC50 on FGFR4 (h) was over 1000 nM; in test [2], over 10 µM; in test [3] it was over 10 µM; in test [5], over 10 µM; on FGFR2 (h) it was over 1000 nM. For the same compound, in test [1], the “BAF3-KDR (MIN IL3) pIC50” value was under 5. In addition, in test [4], the “BAF3-FGFR1 (MIN IL3) pIC50” value is given as under 5. Besides, the “BAF3-FGFR3 (MIN IL3) pIC50” value in test [6] is under 5.
